{"source": "patent US9327145B2", "about": "“Cosmetic compositions comprising manikara multinervis and extracts thereof” (Cognis IP Management GmbH, priority 2009, dated 2016)", "key": {"human dermal fibroblasts [1]": {"tested_on": "human dermal fibroblasts", "test": "Pro-collagen (type I) effect: released type I collagen (ELISA) and cellular proteins (Bradford)", "assay_type": "cell-based", "settings": "5 μg/ml; 3 days; percentage referring to the control medium; mean +/- SEM", "procedure": "Manilkara multinervis extract according to example 1 was incubated on human dermal fibroblasts cultured in vitro and the release of collagen type I was measured in cell culture medium through an ELISA method. It was tested in comparison to the positive reference vitamin C (ascorbic acid). The human dermal fibroblasts were cultured within growth medium enriched with Fetal Calf Serum (FCS) and incubated for 1 day at 37° C. […] Thereafter, the cell number was measured by quantification of cellular proteins (Bradford's method) while the level of collagen synthesis was determined by quantification of collagen peptides in cell culture medium (ELISA method). The results were calculated through a reference range of proteins or collagen and then expressed in percentage referring to the control medium and presented as a mean+/−SEM (Standard Error of Mean) from 4 assays in triplicate."}, "human dermal fibroblasts [2]": {"tested_on": "human dermal fibroblasts", "test": "Fibulin-5 synthesis by immunocytochemistry (ICC)", "assay_type": "cell-based", "settings": "10 ng/ml, mean only", "procedure": "Manilkara multinervis extract according to example 1 was incubated on human dermal fibroblasts cultured in vitro and the synthesis of fibulin-5 was measured in cell culture medium through an ICC method. It was tested in comparison to the positive reference TGF-β1 (Transforming Growth Factor-β1).\n(§1) The human dermal fibroblasts were cultured within growth medium enriched with Fetal Calf Serum (FCS) and incubated for 3 days at 37° C. Then the growth medium was exchanged for a standard medium containing FCS at 1% and the Manilkara multinervis extract according to example 1 and incubated for 5 days at 37° C. Thereafter, the fibulin-5 synthesis was measured by immunocytochemistry (ICC) technique. The results were expressed in percentage of staining occupation and presented for 2 assays as a mean+/−SEM (Standard Error of Mean) of 6 measurements."}, "human dermal fibroblasts [3]": {"tested_on": "human dermal fibroblasts", "test": "Tropoelastin synthesis by immunocytochemistry (ICC)", "assay_type": "cell-based", "settings": "10 ng/ml", "procedure": "Manilkara multinervis extract according to example 1 was incubated on human dermal fibroblasts cultured in vitro and the synthesis of tropoelastin was measured in cell culture medium through an ICC method. It was tested in comparison to the positive reference TGF-β1 (Transforming Growth Factor-β1).\nas §1, with “several” for “for 5”, “tropoelastin” for “fibulin-5”, “3” for “2”"}, "collagen type I": {"tested_on": "collagen type I", "test": "Anti-glycation: non enzymatic glycation of collagen type I incubated with glucose (Schiff's bases fluorescence)", "assay_type": "biochemical", "settings": "3 weeks at 45° C., mean +/- SEM", "procedure": "In order to evaluate the potential of Manilkara multinervis extract to reduce the rate of “non enzymatic” glycation of proteins such as skin collagen, the extract was tested in comparison to aminoguanidine as a positive reference. The “non-enzymatic” glycation results from the reaction of proteins with reducing sugars such as glucose and […]. These sugars react with the free amino groups present in the proteins to form the so called “Schiff's bases”, ultimately resulting in so-called “advanced glycosylation endproducts”. In human skin, the process of “non enzymatic” glycation causes in time a decrease of strength and an atrophy of dermis which are characteristic of skin aging.\nThe extracts were tested in vitro by incubating collagen type I in solution with glucose during 3 weeks at 45° C. Then the level of “non enzymatic” glycation was determined by measuring the rate of “Schiff's bases” through the record of fluorescence at 430 nm (excitation at 350 nm) of the supernatant solution recovered after centrifugation of the solutions during 15 minutes at 3500 rpm (revolution per minute). The rates of “non enzymatic” glycation were calculated as % referring to the control with glucose. The assays were repeated up to 6 times and the results were expressed in percentage referring to the control with glucose then presented as a mean+/− the SEM (standard error of mean) and statistically evaluated by the student t test. All % values given are weight-%."}}, "note": "Marks after values point to notes of the source that are not given here."}
{"molecule": "O=C1O[C@H]([C@@H](O)CO)C(O)=C1O", "note": "[Vitamin C, ascorbic acid]", "values": [{"measurement": "Cellular Proteins", "setting": "human dermal fibroblasts [1]", "result": "97 +/− 4%"}, {"measurement": "Released type I Collagen", "setting": "human dermal fibroblasts [1]", "result": "138 +/− 14** %"}]}
{"molecule": "TGF-β1: positive reference TGF-β1 (Transforming Growth Factor-β1)", "values": [{"measurement": "% of staining occupation Assay 1 (fibulin-5)", "setting": "human dermal fibroblasts [2]; Assay 1, control 15.57 +/− 4.38", "result": 79.99, "unit": "%"}, {"measurement": "% of staining occupation Assay 2 (fibulin-5)", "setting": "human dermal fibroblasts [2]; Assay 2, control 2.65 +/− 0.36", "result": 18.8, "unit": "%"}, {"measurement": "stimulation of tropoelastin synthesis (mean)", "setting": "human dermal fibroblasts [3]", "result": 82, "unit": "%"}]}
{"molecule": "N=C(N)NN", "note": "[Aminoguanidine, aminoguanidine]", "values": [{"measurement": "Rate of Schiff's bases in %/control with glucose", "setting": "collagen type I; 0.02%", "result": "47 +/− 1** (n = 6) %/control with glucose"}, {"measurement": "Rate of Schiff's bases in %/control with glucose", "setting": "collagen type I; 0.05%", "result": "34 +/− 1** (n = 6) %/control with glucose"}, {"measurement": "Rate of Schiff's bases in %/control with glucose", "setting": "collagen type I; 0.1%", "result": "27 +/− 1** (n = 6) %/control with glucose"}]}
